From patent publication US9586907B2, “Isothiocyanate compounds, pharmaceutical compositions, and uses thereof” (priority 2006, dated 2017)
Values after ≈ are worked out from the molar mass of the structure shown. Like-named read-outs stand apart in the source and are kept apart here.

How the values were obtained:
[1] = system: clinical isolates of bacteria and fungus (including yeasts); experiment: General antimicrobial activity, semi-quantitative score on collection of clinical isolates; assay type: cell-based; settings: for antimicrobial / growth-inhibitory activity (in words): Table 1 screen; on General antimicrobial activity: key: −: indicating no activity; +++++: indicating highest activity
Protocol: The growth inhibitory effect of a number of various ITC compounds were tested on large collection of clinical isolates of bacteria and fungus (including yeasts), in order to establish a systematic structure-activity relationship for the ITC compounds. […] To assess the average activity for an individual ITC compound, the semi-quantitative score was calculated for each compound based on the number of sensitive bacterial strains at concentrations of 100 and 200 μM.

[2] = system: M. tuberculosis 210; experiment: MIC, M. tuberculosis 210; assay type: cell-based
Protocol: (§1) Next, several of the bifunctional ITC compounds were tested for their ability to inhibit the growth of some clinical isolates of Mycobacteria, the results of which are summarized in Table 3 below.

[3] = system: M. cansassi; experiment: MIC, M. cansassi; assay type: cell-based
[4] = system: M. fortuitum; experiment: MIC, M. fortuitum; assay type: cell-based
[5] = system: M. intracellularie; experiment: MIC, M. intracellularie; assay type: cell-based
[6] = system: M. avium; experiment: MIC, M. avium; assay type: cell-based
[7] = system: M. tuberculosis H37Rv; experiment: MIC, M. tuberculosis H37Rv; assay type: cell-based
Protocol: as §1

[8] = system: M. bovis BCG; experiment: microbe, parasite or virus in culture; assay type: cell-based
[9] = system: M. scrofulaceum; experiment: MIC, M. scrofulaceum; assay type: cell-based
[10] = system: M. tuberculosis P; experiment: MIC, M. tuberculosis P; assay type: cell-based
Protocol: as §1

[11] = system: M. tuberculosis CDC1551; experiment: MIC, M. tuberculosis CDC1551; assay type: cell-based
Protocol: as §1

[12] = system: M. tuberculosis W4; experiment: MIC, M. tuberculosis W4; assay type: cell-based
Protocol: as §1

[13] = system: M. tuberculosis W; experiment: MIC, M. tuberculosis W; assay type: cell-based
Protocol: as §1

[14] = system: M. tuberculosis AB; experiment: MIC, M. tuberculosis AB; assay type: cell-based
Protocol: as §1

[15] = system: MRSA (Staphylococcus aureus) BK12060; experiment: MIC, MRSA BK12060; settings: MRSA BK12060; Gram +; 24 hours of incubation
[16] = system: Serattia marcescens BK12421; experiment: MIC, Serattia marcescens BK12421; settings: Serattia marcescens BK12421; Gram −; 24 hours of incubation
[17] = system: Bacillus subtilis BK11590; experiment: MIC, Bacillus subtilis BK11590; assay type: cell-based; settings: Gram +, 24 hours of incubation
[18] = system: Enterococcus sp., BK11940; experiment: MIC, Enterococcus sp., BK11940; settings: Enterococcus sp., BK11940; Gram +; 24 hours of incubation
[19] = system: Klebsiella pneumonii BK12261; experiment: MIC, Klebsiella pneumonii BK12261; settings: Klebsiella pneumonii BK12261; Gram −; 24 hours of incubation
[20] = system: Pseudomonas aeruginosa BK12348; experiment: MIC, Pseudomonas aeruginosa BK12348; settings: Pseudomonas aeruginosa BK12348; Gram −; 24 hours of incubation
[21] = system: Serattia marcescens BK12426; experiment: MIC, Serattia marcescens BK12426; settings: Serattia marcescens BK12426; Gram −; 24 hours of incubation
[22] = system: Pseudomonas aeruginosa BK12347; experiment: MIC, Pseudomonas aeruginosa BK12347; settings: Pseudomonas aeruginosa BK12347; Gram −; 24 hours of incubation
[23] = system: Bacillus cereus 4342; experiment: MIC, Bacillus cereus 4342; settings: Bacillus cereus 4342; Gram +; 24 hours of incubation
[24] = system: Shigella sp., BK 12441; experiment: MIC, Shigella sp., BK 12441; assay type: cell-based; settings: Gram −, 24 hours of incubation
[25] = system: Klebsiella pneumonii BK12260; experiment: MIC, Klebsiella pneumonii BK12260; settings: Klebsiella pneumonii BK12260; Gram −; 24 hours of incubation
[26] = system: Acinetobacter sp., BK12787; experiment: MIC, Acinetobacter sp., BK12787; settings: Acinetobacter sp., BK12787; Gram −; 24 hours of incubation
[27] = system: Enterobacter cloacii BK12315; experiment: MIC, Enterobacter cloacii BK12315; settings: Enterobacter cloacii BK12315; Gram −; 24 hours of incubation
[28] = system: Staphylococcus epidermidis BK12799; experiment: MIC, Staphylococcus epidermidis BK12799; settings: Staphylococcus epidermidis BK12799; Gram +; 24 hours of incubation
[29] = system: Enterococcus sp., BK11936; experiment: MIC, Enterococcus sp., BK11936; settings: Enterococcus sp., BK11936; Gram +; 24 hours of incubation
[30] = system: Enterobacter cloacii BK12313; experiment: MIC, Enterobacter cloacii BK12313; settings: Enterobacter cloacii BK12313; Gram −; 24 hours of incubation
[31] = system: Acinetobacter sp., BK12786; experiment: MIC, Acinetobacter sp., BK12786; settings: Acinetobacter sp., BK12786; Gram −; 24 hours of incubation
[32] = system: Shigella sp., BK 12440; experiment: MIC, Shigella sp., BK 12440; assay type: cell-based; settings: Gram −, 24 hours of incubation
[33] = system: MRSA (Staphylococcus aureus) BK12064; experiment: MIC, MRSA BK12064; settings: MRSA BK12064; Gram +; 24 hours of incubation
[34] = system: Staphylococcus epidermidis BK12798; experiment: MIC, Staphylococcus epidermidis BK12798; settings: Staphylococcus epidermidis BK12798; Gram +; 24 hours of incubation
[35] = system: Escherichia coli BK12336; experiment: MIC, Escherichia coli BK12336; settings: Escherichia coli BK12336; Gram −; 24 hours of incubation
[36] = system: Escherichia coli K12; experiment: MIC, Escherichia coli K12; settings: Escherichia coli K12; Gram −; 24 hours of incubation
[37] = system: Aspergillus fumigatus Rit 21; experiment: Anti-fungal MIC, Aspergillus fumigatus Rit 21; settings: Aspergillus fumigatus, RIT21, read-out: Anti-Fungal Activity (MIC)
[38] = system: Candida albicans 5108^mdr; experiment: Anti-fungal MIC, Candida albicans 5108^mdr; settings: Candida albicans, read-out: Anti-Fungal Activity (MIC)
[39] = system: Candida albicans 90030; experiment: Anti-fungal MIC, Candida albicans 90030; settings: Candida albicans, 90030, read-out: Anti-Fungal Activity (MIC)
[40] = system: Candida dlabrata 250^mdr; experiment: Anti-fungal MIC, Candida dlabrata 250^mdr; settings: Candida, read-out: Anti-Fungal Activity (MIC)
[41] = system: Aspergillus fumigatus Rit 11; experiment: Anti-fungal MIC, Aspergillus fumigatus Rit 11; settings: Aspergillus fumigatus, RIT11, read-out: Anti-Fungal Activity (MIC)
[42] = system: Candida albicans 90028; experiment: Anti-fungal MIC, Candida albicans 90028; settings: Candida albicans, 90028, read-out: Anti-Fungal Activity (MIC)
[43] = system: Cryptococcus neoformans CNH99; experiment: Anti-fungal MIC, Cryptococcus neoformans CNH99; settings: Cryptococcus neoformans, CNH99, read-out: Anti-Fungal Activity (MIC)
[44] = system: Aspergillus fumigatus Rit 1; experiment: Anti-fungal MIC, Aspergillus fumigatus Rit 1; settings: Aspergillus fumigatus, RIT1, read-out: Anti-Fungal Activity (MIC)
[45] = system: Candida crusei 6258^mdr; experiment: microbe, parasite or virus in culture; settings: read-out: Anti-Fungal Activity (MIC)
[46] = system: Candida parapsilosis 22019; experiment: Anti-fungal MIC, Candida parapsilosis 22019; settings: 22019, read-out: Anti-Fungal Activity (MIC)
[47] = Mycobacterium tuberculosis, read-out: MIC

CCCCN=C=S [Compound 7, CH3CH2CH2CH2—N═C═S, reference compound]
antimicrobial / growth-inhibitory activity (in words) [1]: very little activity

CN=C=S [Compound 8, CH3—N═C═S, reference compound]
antimicrobial / growth-inhibitory activity (in words) [1]: very little activity

O=C(O)c1cc(N=C=S)ccc1-c1c2ccc(O)cc2cc2cc(O)ccc12 [Compound 14, reference compound]
antimicrobial / growth-inhibitory activity (in words) [1]: poor growth-inhibitory activity

C=CCN=C=S [Compound 22, CH2═CH2CH2—N═C═S, reference compound]
antimicrobial / growth-inhibitory activity (in words) [1]: very little activity

O=C=NCc1ccccc1 [Compound 23, reference compound]
antimicrobial / growth-inhibitory activity (in words) [1]: Neither of the chemically related derivatives—isocyanate (Compound 23) or thiocyanate (Compound 25)—displayed any activity
General antimicrobial activity ([1]; semi-quantitative score from number of sensitive bacterial strains at 100 and 200 μM, deduced from number of sensitive bacterial species and average MIC): −

S=C=NCC12CC3CC(CC(C3)C1)C2 [Compound 35]
antimicrobial / growth-inhibitory activity (in words) [1]: poor growth-inhibitory activity

S=C=NCCCCCCN=C=S [Compound 40, S═C═N—(CH2)6—N═C═S]
MIC [2]: 2 µg/mL (≈ 9.98 µM)
MIC ([3]; M. cansassi): 8 µg/mL (≈ 39.9 µM)
MIC ([4]; M. fortuitum): 16 µg/mL (≈ 79.9 µM)
MIC ([5]; M. intracellularie): 32 µg/mL (≈ 160 µM)
MIC ([6]; M. avium): 32 µg/mL (≈ 160 µM)
MIC [7]: 2 µg/mL (≈ 9.98 µM)
MIC [8]: 2 µg/mL (≈ 9.98 µM)
MIC ([9]; M. scrofulaceum): 32 µg/mL (≈ 160 µM)
MIC [10]: 2 µg/mL (≈ 9.98 µM)
MIC [11]: 4 µg/mL (≈ 20 µM)
MIC [12]: 2 µg/mL (≈ 9.98 µM)
MIC [13]: 0.5 µg/mL (≈ 2.5 µM)
MIC [14]: 4 µg/mL (≈ 20 µM)

OCCCCCCCN=C=S [Compound 44, HO—(CH2)7—N═C═S]
MIC [15]: 8 µg/mL (≈ 46.2 µM)
MIC [16]: >64 µg/mL
MIC [17]: 4 µg/mL (≈ 23.1 µM)
MIC [18]: 32 µg/mL (≈ 185 µM)
MIC [19]: >64 µg/mL
MIC [20]: >64 µg/mL
MIC [21]: >64 µg/mL
MIC [22]: >64 µg/mL
MIC [23]: 8 µg/mL (≈ 46.2 µM)
MIC [24]: 64 µg/mL (≈ 369 µM)
MIC [25]: >64 µg/mL
MIC [26]: 64 µg/mL (≈ 369 µM)
MIC [27]: >64 µg/mL
MIC [28]: 8 µg/mL (≈ 46.2 µM)
MIC [29]: 32 µg/mL (≈ 185 µM)
MIC [30]: >64 µg/mL
MIC [31]: 64 µg/mL (≈ 369 µM)
MIC [32]: 64 µg/mL (≈ 369 µM)
MIC [33]: 16 µg/mL (≈ 92.3 µM)
MIC [34]: 8 µg/mL (≈ 46.2 µM)
MIC [35]: >64 µg/mL
MIC [36]: >64 µg/mL

OC(Cn1cncn1)(Cn1cncn1)c1ccc(F)cc1F [Fluc, Fluconazol, reference compound]
MIC [37]: > 64 µg/mL
MIC [38]: 32 µg/mL (≈ 104 µM)
MIC [39]: 4 µg/mL (≈ 13.1 µM)
MIC [40]: > 64 µg/mL
MIC [41]: > 64 µg/mL
MIC [42]: 0.25 µg/mL (≈ 0.816 µM)
MIC [43]: 4 µg/mL (≈ 13.1 µM)
MIC [44]: > 64 µg/mL
MIC [45]: 32 µg/mL (≈ 104 µM)
MIC [46]: 2 µg/mL (≈ 6.53 µM)

CO[C@H]1/C=C/O[C@@]2(C)Oc3c(C)c(O)c4c(O)c(c(/C=N/N5CCN(C)CC5)c(O)c4c3C2=O)NC(=O)/C(C)=C\C=C\[C@H](C)[C@H](O)[C@@H](C)[C@@H](O)[C@@H](C)[C@H](OC(C)=O)[C@@H]1C [Rif, Rifampicin, reference compound]
MIC [2, 47]: 0.5 µg/mL (≈ 0.608 µM)
MIC [3]: 0.5 µg/mL (≈ 0.608 µM)
MIC ([4]; Mycolicibacterium fortuitum): > 4 µg/mL
MIC [5]: 0.5 µg/mL (≈ 0.608 µM)
MIC ([6]; Mycobacterium avium): 0.5 µg/mL (≈ 0.608 µM)
MIC [7, 47]: 0.5 µg/mL (≈ 0.608 µM)
MIC ([8]; Mycobacterium tuberculosis variant bovis BCG, BCG): 0.5 µg/mL (≈ 0.608 µM)
MIC ([9]; Mycobacterium scrofulaceum): 0.5 µg/mL (≈ 0.608 µM)
MIC [10, 47]: > 4 µg/mL
MIC [11, 47]: 0.5 µg/mL (≈ 0.608 µM)
MIC [12, 47]: 0.5 µg/mL (≈ 0.608 µM)
MIC [13, 47]: > 4 µg/mL
MIC [14, 47]: 0.5 µg/mL (≈ 0.608 µM)
